Measured values: patent US20060089302A1, “Hsp70-derived peptides and uses thereof in the diagnosis and treatment of autoimmune diseases” (priority 2002, published 2006)
Several values for one entry are separate records, joined by “and”; a condition that tells them apart may be missing. Identical values can stand only once.

Experiments:
[1] = tested on: peripheral blood mononuclear cells (PBMC) / T-cells; assay: T-cell proliferation assay (3H-Thymidine incorporation, stimulation index); assay type: cell-based, human; conditions: for T-cell reactivity to hsp70 peptide (epitope mapping): seven Type 1 Diabetes patients (P3, P16, P18, P20, P21, P23, P24), immunogenic when at least 3 out of 7 patients had S.I.≥2; for T-cell reactivity to hsp70 peptide (epitope mapping) / Number of Type 1 Diabetes subjects responding to the peptide: peptide 5-20 μg/ml; for Number of Type 1 Diabetes subjects responding to the peptide: epitope mapping, seven subjects tested (p1: three of these plus two adult patients), S.I.≥2; for T-cell proliferative response, S.I., Mean ± SD: group mean
[2] = tested on: serum IgG anti-hsp60, anti-hsp70, anti-hsp90, anti-tetanus toxoid; assay: Determination of auto-antibodies (antibody capture ELISA on antigen-coated plates); assay type: binding, human; conditions: for IgG antibodies to the antigen in serum, Mean ± SD: group mean
Description: All of the serum samples that were collected were stored in aliquotes at −20° C. and thawed before each assay. Total human IgG anti-hsp60, anti-hsp70, and anti-hsp90, as well as anti-tetanus toxoid proteins were detected by the antibody capture-type enzyme immunoassay ELISA [Maggio, M. T. (1981) Enzyme Immunoassay, CRC Press, Boca Raton, USA]. 96-well micro titer plates (Dynatech) were coated with the protein according to the antibody being tested. Serum samples were distributed at dilutions in the range of 1:50 to 1:70 into the pre-coated wells for the protein detection assay. Thus, any IgG anti-hsp60, anti-hsp70, anti-hsp90, or anti-tetanus toxoid present should be bound by the immobilized peptide or protein. After washing off unbound material, a mouse monoclonal anti-human IgG antibody conjugated to alkaline phosphatase (AP) was added to the wells. After an additional washing step to remove any unbound anti-enzyme reagent, the AP substrate p-nitrophenyl phosphate (pNPP) solution was added. The intensity of the color developed was measured using an Anthos htll ELISA reader at λ=405 nm. The amount of antibody detected was represented as Units of Optical Density at λ=405 nm. Patients and control subjects were assayed in the same experiment.
The InStat 2.01 computer program was used for the statistical analysis. The results obtained from the samples of healthy individuals were used to determine the cutoff for each assay, which was established as the mean plus two standard deviations (SDs). […] The results were presented as the percentage of positive from the total tested group.
Levels of IgG antibodies to hsp60, hsp70, and hsp90 were measured in the sera of 20 Type 1 Diabetes children (P1-P5, P7-P21; Table 3A) and two control groups, 10 normoglycemic children (Table 3B) and 15 healthy adult blood donors (Table 3C). The level of the antibodies was scored as positive when it was greater than the cut-off level (cut-off levels were established based on the mean value of antibody levels from the normoglycemic children plus two standard deviations).

[3] = healthy subjects / healthy blood donors
[4] = Type 1 diabetes children (n=20), cut-off = mean of normoglycemic children plus two SD
[5] = healthy adult blood donors (n=15)
[6] = pediatric control serum donors / healthy children (n=10)

KANKITITNDKGRLSKEEIE (listed as Homo sapiens) [p34, human hsp70 residues 496-515]
T-cell reactivity to hsp70 peptide (epitope mapping) [1]: triggered a T-cell response

KEEIERMVQEAEKYKAEDEV (listed as Homo sapiens) [p35, human hsp70 residues 511-530]
Number of Type 1 Diabetes subjects responding to the peptide [1]: five
T-cell reactivity to hsp70 peptide (epitope mapping) [1]: triggered a T-cell response

KRTLSSSTQASLEIDSLFEG (listed as Homo sapiens) [p19, human hsp70 residues 271-290]
T-cell reactivity to hsp70 peptide (epitope mapping) [1]: triggered a T-cell response

LLLLDVAPLSLGLETAGGVM (listed as Homo sapiens) [p27, human hsp70 residues 391-410]
Number of Type 1 Diabetes subjects responding to the peptide [1]: six out of seven
T-cell reactivity to hsp70 peptide (epitope mapping) [1]: triggered a T-cell response

MAKAAAVGIDLGTTYSCVGV (listed as Homo sapiens) [p1, human hsp70 residues 1-20]
Number of Type 1 Diabetes subjects responding to the peptide [1]: five
T-cell reactivity to hsp70 peptide (epitope mapping) [1]: triggered a T-cell response

PTKQTQIFTTYSDNQPGVLI (listed as Homo sapiens) [p29, human hsp70 residues 421-440]
T-cell reactivity to hsp70 peptide (epitope mapping) [1]: triggered a T-cell response

THLGGEDFDNRLVNHFVEEF (listed as Homo sapiens) [p16, human hsp70 residues 225-244]
T-cell reactivity to hsp70 peptide (epitope mapping) [1]: triggered a T-cell response

TIDDGIFEVKATAGDTHLGG (listed as Homo sapiens) [p15, human hsp70 residues 210-229]
T-cell reactivity to hsp70 peptide (epitope mapping) [1]: triggered a T-cell response

Tetanus Toxoid: recall antigen Tetanus Toxoid (Connaught Lab. Inc, Penn., USA) [reference compound]
T-cell proliferative response, S.I., Mean ± SD ([1]; Healthy subjects): 8.01 ± 9.3
T-cell proliferative response, S.I., Mean ± SD ([1]; Healthy subjects, listed as tetanus toxoid): 9.4±6.4
T-cell proliferative response, S.I., Mean ± SD ([1]; Type 1 Diabetes adult patients): 14.3 ± 22.86
T-cell proliferative response, S.I., Mean ± SD ([1]; Type 1 Diabetes children): 17.2±16.1
T-cell proliferative response, S.I., Mean ± SD ([1]; Type 1 Diabetes children, listed as T.T.): 17.2 ± 15.9
T-cell proliferative response, S.I., Mean ± SD ([1]; Type 2 Diabetes patients): 4.4
T-cell proliferative response, S.I., Mean ± SD ([1]; Type 2 Diabetes patients, listed as tetanus toxoid): 4.4±2.9
Serum antibodies to control antigen, in words ([2]; Type 1 Diabetes and control groups): comparably high

hsp70: recombinant human hsp70 (StressGen, Canada), intact heat-shock protein
T-cell proliferative response, S.I., Mean ± SD ([1]; Healthy subjects): 1.4±0.6 and 1.45±0.6 and 1.44 ± 0.6
T-cell proliferative response, S.I., Mean ± SD ([1]; Type 1 Diabetes adult patients): 2.6+0.84 and 2.6 ± 0.84
Responding subjects (S.I.≥2) ([1]; Type 1 Diabetes adult patients, within 12 weeks from diagnosis): about 86%
Responding subjects (S.I.≥2) ([1]; Type 1 Diabetes children): 85%
Responding subjects (S.I.≥2) ([1]; Type 2 Diabetes patients): 27%
T-cell proliferative response, S.I., Mean ± SD ([1]; Type 2 Diabetes patients): 1.8±1.3 and 1.8 ± 1.26
Responding subjects (S.I.≥2) [1, 3]: 14% and 13%
IgG antibodies to the antigen in serum, Mean ± SD ([2]; Type 1 Diabetes children): 0.5 ± 0.41 Units of Optical Density at λ=405 nm
Positive (antibody level above cut-off) [2, 4]: 30%
Positive (antibody level above cut-off) ([2]; Type 1 diabetes children (n=20), cut-off = mean of normoglycemic children plus two SD, listed as Hsp70): 30%
Positive (antibody level above cut-off) [2, 5]: 6%
Positive (antibody level above cut-off) ([2]; healthy adult blood donors (n=15), listed as Hsp70): 6.6%
IgG antibodies to the antigen in serum, Mean ± SD ([2]; healthy adult blood donors): 0.43 ± 0.1 Units of Optical Density at λ=405 nm
Positive (antibody level above cut-off) [2, 6]: none
Positive (antibody level above cut-off) ([2]; pediatric control serum donors / healthy children (n=10), listed as Hsp70): 0%
IgG antibodies to the antigen in serum, Mean ± SD ([2]; pediatric control serum donors): 0.35 ± 0.09 Units of Optical Density at λ=405 nm

hsp90: recombinant human hsp90 (StressGen, Canada), heat-shock protein
T-cell proliferative response, S.I., Mean ± SD ([1]; Healthy subjects): 1.52±0.7
T-cell response, in words ([1]; Type 1 Diabetes adult patients (Table 1D), tested after more than 12 weeks): No response
T-cell proliferative response, S.I., Mean ± SD ([1]; Type 1 Diabetes adult patients): 1.4 ± 0.3
Responding subjects (S.I.≥2) ([1]; Type 1 Diabetes children): 21%
T-cell proliferative response, S.I., Mean ± SD ([1]; Type 1 Diabetes children): 1.7±1.2 and 1.7 ± 1.1
Responding subjects (S.I.≥2) ([1]; Type 2 Diabetes patients): 9%
T-cell proliferative response, S.I., Mean ± SD ([1]; Type 2 Diabetes patients): 1.6±1.4 and 1.6 ± 1.38
Responding subjects (S.I.≥2) [1, 3]: 25%
IgG antibodies to the antigen in serum, Mean ± SD ([2]; Type 1 Diabetes children): 0.47 ± 0.13 Units of Optical Density at λ=405 nm
Positive (antibody level above cut-off) [2, 4]: 15%
Positive (antibody level above cut-off) ([2]; Type 1 diabetes children (n=20), cut-off = mean of normoglycemic children plus two SD, listed as Hsp90): 15%
Positive (antibody level above cut-off) [2, 5]: 6%
Positive (antibody level above cut-off) ([2]; healthy adult blood donors (n=15), listed as Hsp90): 6.6%
IgG antibodies to the antigen in serum, Mean ± SD ([2]; healthy adult blood donors): 0.46 ± 0.1 Units of Optical Density at λ=405 nm
Positive (antibody level above cut-off) [2, 6]: none
Positive (antibody level above cut-off) ([2]; pediatric control serum donors / healthy children (n=10), listed as Hsp90): 0%
IgG antibodies to the antigen in serum, Mean ± SD ([2]; pediatric control serum donors): 0.43 ± 0.1 Units of Optical Density at λ=405 nm
